According to patent US20260199902A1, “SYSTEM AND APPARATUS FOR THE HAND-HELD AMPLIFICATION AND DETECTION OF NUCLEIC ACIDS” (Darwin Biosciences, Inc., priority 2022, published 2026):
Where a name gives a salt, the structure may show the parent alone.

Legend:
RT-RPA reactions = assay: RT-RPA interference (compatibility) testing of lysis and RNase inhibitor reagents, agarose gel; format: biochemical; design: key: Pass (green) indicates that reagents did not interfere with RT-RPA; Partial Pass: Partial pass (yellow) indicates that reagents had partial interference in RT-RPA; Fail (red) indicates reagents completely interfered with RT-RPA reactions
Protocol: FIG. 28. Reagent interference testing in RT-RPA. Lysis and RNase inhibitor reagents tested in RT-RPA using cDNA and RNA templates. RT-RPA reactions were prepared with varying concentrations of reagents, as labeled above (final concentrations in a 20 μl RT-RPA reaction are reported). Amplification products were run on a 2% agarose gel and band intensities were compared to control (No added reagent) reactions. Reactions labeled in red contain no reverse transcriptase. The expected size of the CXCL8 amplicon is indicated to the left of the gel. GuHCI=Guanidine hydrochloride, Triton=Triton X-100.
Reagents under consideration for the device were tested for compatibility with RT-RPA at the concentrations expected to be required for lysis. To test for interference, lysis or RNase inhibitor reagents were spiked into RT-RPA reactions with purified cell line RNA or cDNA as a template. Reactions were analyzed by agarose gel for the presence or absence of amplified products. […]

RT-RPA reaction = assay: RT-RPA efficiency in the presence of Buffer 20 and Buffer 21; format: biochemical; conditions: 100 mM
Protocol: FIG. 7. Evaluation of optimized sample treatment and lysis buffer components. (A) RT-RPA efficiency in the presence of Buffer 20 and Buffer 21, using cell line RNA as (+) template and (−) no template control. (B) Optimized early/pre-infection diagnostic sample treatment and lysis tested on 5 individuals. −RT=no reverse transcriptase was included in the RT-RPA reaction, +RT=Superscript IV was added to the RPA reaction at a final concentration of 1 U/μl.
We therefore modified the lysis buffer formulation to Buffer 21 (5 mM TCEP-HCl, 7.5% Tween-20, 0.00167% Digitonin), which removed the guanidine hydrochloride and RNase Inhibitor. […] The present inventors lyophilized Buffer 21 into the selected lysis pad material and processed saliva from five donors through the device (FIG. 7B). This processing included expression of the sample from a collection pad, which pushed the sample through the lysis pad embedded with Buffer 21 and 4 U/μl of mRI, followed by the 10 μm filter, 100 mg of Chelex-100, and 1 μm filter. The resulting sample was used to reconstitute RPA reagents (Twist rehydration buffer and Twist enzymes), and reverse transcriptase and modified RPA primers were added to the reaction.

saliva RNases = assay: RNase activity assay: cell line RNA incubated with treated saliva, read on Agilent TapeStation; format: biochemical, human; design: key: Pass (green) indicating sufficient RNase inactivation; Partial Pass (yellow) indicating partial RNase inactivation; Fail (red) indicating incomplete RNase inactivation
Protocol: FIG. 27. Example of saliva RNase activity assays assayed on TapeStation High Sensitivity RNA ScreenTapes (5067; Agilent). Results from three independent assays are shown. Lanes 1-3 (left to right) are experimental controls including 500 μg RNA in RNase free water, untreated saliva without added cell line RNA, and untreated saliva incubated with cell line RNA. Lanes labeled “Incomplete RNase Inactivation” contain no ribosomal RNA bands, indicating RNase activity is present. Lanes labeled “Sufficient RNase Inactivation” contain sharp ribosomal bands (similar to RNA in water), indicating RNases have been inactivated. gDNA=genomic DNA.
(§1) To screen for chemical and protein-based reagents that inhibit saliva RNases, we developed an RNase activity assay in which purified cell line RNA was incubated for 30 min at 37° C. with saliva samples after treatment with potential reagents for RNase inhibition (FIG. 2.5.3). After incubation, RNA was purified and analyzed on an Agilent TapeStation. Sharpness of the eukaryotic ribosomal RNA bands (28S and 18S) were compared to determine RNase activity in the presence of various inhibitors. In addition, the Agilent TapeStation calculates an RNA Integrity Score (RIN) as a measure of RNA quality (RIN of 10-fully intact RNA, RIN of 1=fully degraded RNA), however contaminating nucleic acid (e.g., 16S and 23S rRNA from bacteria) interferes with this calculation.
as §1, with “10=fully” for “10-fully”, “calculation. In total, 54 unique reagents, concentrations, and buffer formulations were tested for their ability to inactivate RNases.” for “calculation.”

[1] = tested on: primer dimers in multiplexed RT-RPA; assay: Betaine as additive in multiplexed RT-RPA; format: biochemical; conditions: preliminary experiments
Source text: A challenge of multiplexed RT-RPA is an increased tendency to form primer dimers that impact the readout on a lateral flow strip. We have explored the use of betaine as an additive to reduce the occurrence of primer dimers. Betaine can prevent the formation of primer dimers in isothermal amplification by effectively lowering the melting temperature of an oligo sequence. […] Thus, betaine may be an effective additive to reduce primer dimers in RT-RPA reactions in certain embodiments.

[2] = 100 mM final in RT-RPA reaction

IGEPAL
Compatibility in RT-RPA, Result (RT-RPA reactions; 0.01%-0.25% final in RT-RPA reaction): Partial Pass

CCCCCCCCCCCC(=O)N(C)CC(=O)[O-].[Na+] [sarkosyl]
Compatibility in RT-RPA, Result (RT-RPA reactions; 0.01% final in RT-RPA reaction): Partial Pass
Compatibility in RT-RPA, Result (RT-RPA reactions; 0.1% final in RT-RPA reaction): Fail

Cl.N=C(N)N [GuHCl, Guanidine hydrochloride]
Compatibility in RT-RPA, Result (RT-RPA reactions; [2]): Pass
Compatibility in RT-RPA, Result (RT-RPA reactions; 200 mM final in RT-RPA reaction): Fail
Effect on RT-RPA reaction efficiency (RT-RPA reaction): reduces the overall efficiency of the RT-RPA reaction

O[C@@H](CS)[C@@H](O)CS [DTT]
Inactivation of saliva RNases, Result (saliva RNases; 10 mM): Fail

CCCCCCCCCCCCOS(=O)(=O)[O-].[Na+] [SDS, sodium dodecyl sulfate]
Compatibility in RT-RPA, Result (RT-RPA reactions; 0.005% final in RT-RPA reaction): Fail

OCCS [beta-mercaptoethanol]
Inactivation of saliva RNases, Result (saliva RNases; 143 mM): Fail

Triton X-100
Compatibility in RT-RPA, Result (RT-RPA reactions; 1% final in RT-RPA reaction): Pass
Compatibility in RT-RPA, Result (RT-RPA reactions; 5%-10% final in RT-RPA reaction): Partial Pass

C[C@@H]1CC[C@@]2(OC1)O[C@H]1[C@@H](O)[C@H]3[C@@H]4CC[C@H]5C[C@@H](O[C@@H]6O[C@H](CO)[C@H](O[C@@H]7O[C@H](CO)[C@@H](O)[C@H](O[C@@H]8OC[C@@H](O)[C@H](O)[C@H]8O)[C@H]7O[C@@H]7O[C@H](CO)[C@H](O)[C@H](O[C@@H]8O[C@H](CO)[C@@H](O)[C@H](O)[C@H]8O)[C@H]7O)[C@H](O)[C@H]6O)[C@H](O)C[C@]5(C)[C@H]4CC[C@]3(C)[C@H]1[C@@H]2C [digitonin]
Compatibility in RT-RPA, Result (RT-RPA reactions; 1% final in RT-RPA reaction): Pass

O=C(O)CN(CCN(CC(=O)O)CC(=O)O)CC(=O)O [EDTA]
Compatibility in RT-RPA, Result (RT-RPA reactions; 2 mM final in RT-RPA reaction): Pass
Compatibility in RT-RPA, Result (RT-RPA reactions; 6 mM final in RT-RPA reaction): Partial Pass
Compatibility in RT-RPA, Result (RT-RPA reactions; 18 mM final in RT-RPA reaction): Fail

Cl [HCl, Hydrochloric acid]
Compatibility in RT-RPA, Result (RT-RPA reactions; 5 mM final in RT-RPA reaction): Pass

C[N+](C)(C)CC(=O)O [betaine]
Primer noise [1]: can reduce primer noise in multiplexed RT-RPA reactions

O=C(O)CCP(CCC(=O)O)CCC(=O)O [TCEP-neutral]
Inactivation of saliva RNases, Result (saliva RNases; 5 mM and 50 mM): Fail

Cl.O=C(O)CCP(CCC(=O)O)CCC(=O)O [TCEP-HCl]
Inactivation of saliva RNases, Result (saliva RNases; 5 mM and 12.5 mM): Fail
Inactivation of saliva RNases, Result (saliva RNases; 50 mM): Pass
Compatibility in RT-RPA, Result (RT-RPA reactions; 5 mM final in RT-RPA reaction): Partial Pass
Compatibility in RT-RPA, Result (RT-RPA reactions; 10 mM final in RT-RPA reaction): Fail

N#CS.N=C(N)N [GTC]
Compatibility in RT-RPA, Result (RT-RPA reactions; [2]): Fail
